Holding throughout (type): cell-based
Experiment [1] has as its target T1, BRAF D594G (Homo sapiens, UniProt P15056, D594G).
T1 construct: Horizon Discovery (HCT-116 BRAF−/− cells); host or cells: HCT-116 BRAF−/− cells, clone 63, lentiviral transduction
Description: BRAF HiBiT degradation assay, C-terminal HiBiT-tagged BRAF D594G overexpressed in HCT-116 BRAF−/− cells (clone 63), Nano-Glo HiBiT Lytic assay. The gist of the method: (§1)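 We quantified degradation of the C-terminally HiBiT-tagged, overexpressed mutant by lytic luminescence, normalizing to DMSO-treated cells with wild-type HCT-116 background subtracted. Dose series ran from 1 μM to 0.01 nM at 0.2% DMSO. Observed Dmax is % degraded at maximal effect.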

Experiment [2] has as its target T2, BRAF G469A (Homo sapiens, UniProt P15056, G469A).
T2 construct: Horizon Discovery (HCT-116 BRAF−/− cells); host or cells: HCT-116 BRAF−/− cells, clone 34, lentiviral transduction
Description: BRAF HiBiT degradation assay, C-terminal HiBiT-tagged BRAF G469A overexpressed in HCT-116 BRAF−/− cells (clone 34), Nano-Glo HiBiT Lytic assay. Put shortly: as §1
In general terms: HiBiT is a short tag that completes a luciferase, so light tracks the accessible tagged protein.

The target in experiment [3] is T3, BRAF V600E (Homo sapiens, UniProt P15056, V600E).
T3 construct: endogenous C-terminal HiBiT fusion tag on BRAF V600E allele; endogenous in cells; host or cells: A375 clone 1F10 (CRISPR-Cas9 knock-in of the HiBiT tag; parental A375 from ATCC)
T3 sequence (P15056 whole entry V600E, the tested form may be a part): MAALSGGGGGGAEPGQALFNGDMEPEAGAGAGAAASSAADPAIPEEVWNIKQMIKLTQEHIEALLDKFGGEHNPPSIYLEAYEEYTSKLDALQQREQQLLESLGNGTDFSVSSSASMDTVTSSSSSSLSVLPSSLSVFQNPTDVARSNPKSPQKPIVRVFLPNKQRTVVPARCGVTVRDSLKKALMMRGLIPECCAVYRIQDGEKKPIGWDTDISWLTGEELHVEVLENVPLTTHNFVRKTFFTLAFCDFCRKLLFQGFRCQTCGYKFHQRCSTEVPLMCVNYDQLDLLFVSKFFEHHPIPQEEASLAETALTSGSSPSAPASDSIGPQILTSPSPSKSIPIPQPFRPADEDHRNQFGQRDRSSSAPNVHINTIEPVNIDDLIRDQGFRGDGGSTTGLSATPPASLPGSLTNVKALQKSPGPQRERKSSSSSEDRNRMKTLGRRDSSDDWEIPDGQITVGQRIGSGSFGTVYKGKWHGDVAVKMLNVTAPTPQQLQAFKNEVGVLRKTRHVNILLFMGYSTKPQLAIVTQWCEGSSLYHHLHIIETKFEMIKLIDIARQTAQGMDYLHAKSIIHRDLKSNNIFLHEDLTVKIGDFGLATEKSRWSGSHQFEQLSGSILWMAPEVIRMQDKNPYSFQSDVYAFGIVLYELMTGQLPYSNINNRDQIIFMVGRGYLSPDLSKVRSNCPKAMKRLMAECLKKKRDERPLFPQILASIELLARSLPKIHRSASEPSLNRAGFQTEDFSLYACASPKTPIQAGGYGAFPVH
Description: BRAF HiBiT degradation assay, C-terminal HiBiT-tagged BRAF V600E A375 cells (clone 1F10), Nano-Glo HiBiT Lytic assay. As to conditions: for Dmax: A-375. The gist of the method:
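Steps: seed HiBiT-tagged A375 clone 1F10 cells; incubate 24 h, 37 °C, 5% CO2; add compound (11 half-log points from 1 μM, 0.2% DMSO); lyse with HiBiT detection reagent plus LgBiT for 10 min; read luminescence; fit % protein remaining against concentration.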

The target of experiment [4] is T4, BRAF G466V (Homo sapiens, UniProt P15056, G466V).
T4 construct: Horizon Discovery (HCT-116 BRAF−/− cells); host or cells: HCT-116 BRAF−/− cells, clone 8, lentiviral transduction
T4 sequence (P15056 whole entry G466V): as the sequence (P15056 whole entry V600E, the tested form may be a part) above, with G466V, E600V counted along it
Description: BRAF HiBiT degradation assay, C-terminal HiBiT-tagged BRAF G466V overexpressed in HCT-116 BRAF−/− cells (clone 8), Nano-Glo HiBiT Lytic assay. Put shortly:
as §1

Setting [5] is: BRAF D594G (Class 3), HCT-116 BRAF−/− cells, DC50 at 50% degradation.
The mark [6] stands for this setting: BRAF D594G (Class 3), HCT-116 BRAF−/− cells, observed Dmax relative to DMSO control.
Setting [7] is: BRAF G469A (Class 2), HCT-116 BRAF−/− cells, DC50 at 50% degradation.
Where [8] appears, read: BRAF G469A (Class 2), HCT-116 BRAF−/− cells, observed Dmax relative to DMSO control.
Where [9] appears, read: A375 (BRAF V600E, Class 1), DC50 at 50% degradation.
The mark [10] stands for this setting: A375 (BRAF V600E, Class 1), observed Dmax, % protein degraded relative to DMSO control.
Setting [11] is: BRAF G466V (Class 3), HCT-116 BRAF−/− cells, DC50 at 50% degradation.
Where [12] appears, read: BRAF G466V (Class 3), HCT-116 BRAF−/− cells, observed Dmax relative to DMSO control.
Setting [13] is: BRAF D594G, DC50 at 50%: fitted conc. at Y=50.
[14] abbreviates: HCT-116, BRAF D594G, percentage protein degraded at maximal compound effect relative to DMSO.
Where [15] appears, read: Class 2, BRAF G469A, DC50 at 50%: fitted conc. at Y=50.
Where [16] appears, read: HCT-116, Class 2, BRAF G469A, percentage protein degraded at maximal compound effect relative to DMSO.
[17] abbreviates: A375 (BRAF V600E), DC50 at 50%: fitted conc. at Y=50.
The mark [18] stands for this setting: A375 (BRAF V600E), percentage protein degraded at maximal compound effect relative to DMSO.
The mark [19] stands for this setting: BRAF G466V, DC50 at 50%: fitted conc. at Y=50.
The mark [20] stands for this setting: HCT-116, BRAF G466V, percentage protein degraded at maximal compound effect relative to DMSO.

T1 sequence (P15056 whole entry D594G): as the sequence (P15056 whole entry V600E, the tested form may be a part) above, with D594G, E600V counted along it
T2 sequence (P15056 whole entry G469A): as the sequence (P15056 whole entry V600E, the tested form may be a part) above, with G469A, E600V counted along it

A word on the DC50: it is the concentration giving 50% degradation. By Dmax is commonly meant the greatest extent of degradation seen. A low value points to a partial loss of target. On to `CCN(C)S(=O)(=O)Nc1cc(Cl)cc(-c2cn(-c3ccc(N4CCN(CC5CCN(c6ccc([C@H]7CCC(=O)NC7=O)cn6)CC5)CC4)cn3)nc2-c2ccncc2)c1F` [Compound 314, (3R)-3-(6-{4-[(4-{6-[4-(5-chloro-3-{[ethyl(methyl)sulfamoyl]amino}-2-fluorophenyl)-3-(pyridin-4-yl)-1H-pyrazol-1-yl]pyridin-3-yl}piperazin-1-yl)methyl]piperidin-1-yl}pyridin-3-yl)piperidine-2,6-dione], for which the DC50 was less than 10 nM in experiment [1] (setting [5]), 10 to 50 nM in experiment [2] (setting [7]), less than 10 nM in experiment [3] (setting [9]) and 10 to 50 nM in experiment [4] (setting [11]). The Dmax in experiment [1] (setting [6]) was greater than 70%; in experiment [2] (setting [8]), 30 to 70%; in experiment [3] (setting [10]), greater than 70%; in experiment [4] (setting [12]), greater than 70%.

Turning to `CCN(C)S(=O)(=O)Nc1cccc(-c2nc(C)sc2-c2ccnc(Nc3ccc(N4CCN(CC5CCN(c6ccc([C@H]7CCC(=O)NC7=O)cn6)CC5)CC4)cn3)n2)c1F` [Compound 27, (3R)-3-{6-[4-({4-[6-({4-[4-(3-{[ethyl(methyl)sulfamoyl]amino}-2-fluorophenyl)-2-methyl-1,3-thiazol-5-yl]pyrimidin-2-yl}amino)pyridin-3-yl]piperazin-1-yl}methyl)piperidin-1-yl]pyridin-3-yl}piperidine-2,6-dione], the DC50 in experiment [1] (setting [13]) is 10 to 50 nM; in experiment [2] (setting [15]), 50 to 500 nM; in experiment [3] (setting [17]) it was less than 10 nM; in experiment [4] (setting [19]) it was 10 to 50 nM. Besides, the Dmax in experiment [1] (setting [14]) was 30 to 70%; in experiment [2] (setting [16]), 30 to 70%; in experiment [3] (setting [18]) it was greater than 70%; in experiment [4] (setting [20]) it was greater than 70%.

Turning to `CCCS(=O)(=O)Nc1cccc(-c2nc(C3CCN(C(=O)C4CCN(C(=O)C5CCN(c6ccc(C7CCC(=O)NC7=O)cn6)CC5)CC4)CC3)sc2-c2ccnc(N)n2)c1F` (racemic) [Compound 254, Rac-N-{3-[5-(2-aminopyrimidin-4-yl)-2-{1-[1-(1-{5-[(3R)-2,6-dioxopiperidin-3-yl]pyridin-2-yl}piperidine-4-carbonyl)piperidine-4-carbonyl]piperidin-4-yl}-1,3-thiazol-4-yl]-2-fluorophenyl}propane-1-sulfonamide], the DC50 in experiment [1] (setting [5]) is less than 10 nM; in experiment [2] (setting [7]), 10 to 50 nM; in experiment [3] (setting [9]), less than 10 nM; in experiment [4] (setting [11]), less than 10 nM. The Dmax in experiment [1] (setting [6]) was 30 to 70%; in experiment [2] (setting [8]), 30 to 70%; in experiment [3] (setting [10]) it was greater than 70%; in experiment [4] (setting [12]), greater than 70%.

Turning to `CCCS(=O)(=O)Nc1cccc(-c2cn(-c3ccc(N4CCN(CC5CCN(c6ccc(C7CCC(=O)NC7=O)cc6)CC5)CC4)cc3)nc2-c2ccncc2)c1F` (racemic) [Compound 21, Rac-N-{3-[1-(4-{4-[(1-{4-[(3R)-2,6-dioxopiperidin-3-yl]phenyl}piperidin-4-yl)methyl]piperazin-1-yl}phenyl)-3-(pyridin-4-yl)-1H-pyrazol-4-yl]-2-fluorophenyl}propane-1-sulfonamide], the half-maximal degradation concentration (DC50) in experiment [1] (setting [13]) was greater than 500 nM; in experiment [2] (setting [15]), greater than 500 nM; in experiment [3] (setting [17]), 10 to 50 nM; in experiment [4] (setting [19]), 10 to 50 nM. The greatest degradation seen (Dmax) in experiment [1] (setting [14]) was 30 to 70%; in experiment [2] (setting [16]), 30 to 70%; in experiment [3] (setting [18]), greater than 70%; in experiment [4] (setting [20]) it was 30 to 70%.

In the case of `CCN(C)S(=O)(=O)Nc1cc(Cl)cc(-c2cn(-c3ccc(N4CCN(CC5CCN(c6ccc(C7CCC(=O)NC7=O)cn6)CC5)CC4)cc3)nc2-c2ccncc2)c1F` (racemic) [Compound 308, Rac-(3R)-3-(6-{4-[(4-{4-[4-(5-chloro-3-{[ethyl(methyl)sulfamoyl]amino}-2-fluorophenyl)-3-(pyridin-4-yl)-1H-pyrazol-1-yl]phenyl}piperazin-1-yl)methyl]piperidin-1-yl}pyridin-3-yl)piperidine-2,6-dione], the DC50 is less than 10 nM in experiment [1] (setting [5]), 10 to 50 nM in experiment [2] (setting [7]), less than 10 nM in experiment [3] (setting [9]) and less than 10 nM in experiment [4] (setting [11]). The Dmax in experiment [1] (setting [6]), in experiment [2] (setting [8]), in experiment [3] (setting [10]) and in experiment [4] (setting [12]) was greater than 70% in each case.

On to `O=C1CCC(c2ccc(N3CCC(CN4CCN(c5ccc(-n6cc(-c7cc(Cl)cc(NS(=O)(=O)N8CCCC8)c7F)c(-c7ccncc7)n6)c(F)c5)CC4)CC3)nc2)C(=O)N1` (racemic) [Compound 266, Rac-(R)—N-(5-chloro-3-(1-(4-(4-((1-(5-(2,6-dioxopiperidin-3-yl)pyridin-2-yl)piperidin-4-yl)methyl)piperazin-1-yl)-2-fluorophenyl)-3-(pyridin-4-yl)-1H-pyrazol-4-yl)-2-fluorophenyl)pyrrolidine-1-sulfonamide], for which the DC50 in experiment [1] (setting [5]) is less than 10 nM; in experiment [2] (setting [7]), 10 to 50 nM; in experiment [3] (setting [9]), less than 10 nM; in experiment [4] (setting [11]) it was less than 10 nM. Moreover, the Dmax was 30 to 70% in experiment [1] (setting [6]), greater than 70% in experiment [2] (setting [8]), greater than 70% in experiment [3] (setting [10]) and greater than 70% in experiment [4] (setting [12]).

With `CCN(C)S(=O)(=O)Nc1cccc(-c2nc(C)sc2-c2ccnc(Nc3ccc(N4CCN(CC5(F)CCN(c6ccc(C7CCC(=O)NC7=O)cc6)CC5)CC4)cn3)n2)c1F` (racemic) [Compound 33, Rac-(3S)-3-{4-[4-({4-[6-({4-[4-(3-{[ethyl(methyl)sulfamoyl]amino}-2-fluorophenyl)-2-methyl-1,3-thiazol-5-yl]pyrimidin-2-yl}amino)pyridin-3-yl]piperazin-1-yl}methyl)-4-fluoropiperidin-1-yl]phenyl}piperidine-2,6-dione], the 50% degradation concentration (DC50) is 10 to 50 nM in experiment [1] (setting [13]), less than 10 nM in experiment [2] (setting [15]), 10 to 50 nM in experiment [3] (setting [17]) and less than 10 nM in experiment [4] (setting [19]). The maximal degradation (Dmax) in experiment [1] (setting [14]) is 30 to 70%; in experiment [2] (setting [16]) it was 30 to 70%; in experiment [3] (setting [18]) it was greater than 70%; in experiment [4] (setting [20]), 30 to 70%.

For `CCN(C)S(=O)(=O)Nc1cc(Cl)cc(-c2cn(-c3ccc(N4CCN(CC5CCN(c6ccc([C@H]7CCC(=O)NC7=O)cc6)CC5)CC4)cn3)nc2-c2ccncc2)c1F` [Compound 310, (3R)-3-(4-{4-[(4-{6-[4-(5-chloro-3-{[ethyl(methyl)sulfamoyl]amino}-2-fluorophenyl)-3-(pyridin-4-yl)-1H-pyrazol-1-yl]pyridin-3-yl}piperazin-1-yl)methyl]piperidin-1-yl}phenyl)piperidine-2,6-dione], the half-maximal degradation concentration (DC50) in experiment [1] (setting [5]) was less than 10 nM; in experiment [2] (setting [7]) it was 10 to 50 nM; in experiment [3] (setting [9]) it was less than 10 nM; in experiment [4] (setting [11]), 10 to 50 nM. Moreover, the Dmax in experiment [1] (setting [6]) is greater than 70%; in experiment [2] (setting [8]), 30 to 70%; in experiment [3] (setting [10]) it was greater than 70%; in experiment [4] (setting [12]), greater than 70%.

Consider `CCCS(=O)(=O)Nc1cccc(-c2nc(C3CCC4(CC3)CCN(C[C@H]3CC[C@H](Oc5ccc(C6CCC(=O)NC6=O)cn5)CC3)CC4)sc2-c2ccnc(N)n2)c1F` (mixture of isomers) [Compound 257, N-{3-[5-(2-aminopyrimidin-4-yl)-2-(3-{[(1r,4r)-4-({5-[(3RS)-2,6-dioxopiperidin-3-yl]pyridin-2-yl}oxy)cyclohexyl]methyl}-3-azaspiro[5.5]undecan-9-yl)-1,3-thiazol-4-yl]-2-fluorophenyl}propane-1-sulfonamide], for which the DC50 is greater than 500 nM in experiment [1] (setting [5]), greater than 500 nM in experiment [2] (setting [7]), 10 to 50 nM in experiment [3] (setting [9]) and greater than 500 nM in experiment [4] (setting [11]). Also, the maximal degradation (Dmax) in experiment [1] (setting [6]) was less than 30%; in experiment [2] (setting [8]), less than 30%; in experiment [3] (setting [10]), greater than 70%; in experiment [4] (setting [12]), less than 30%.
